# Results published in patent US20250032629A1, “NOVEL NUCLEOLIN-BINDING PEPTIDE AND USE THEREOF” (ANYGEN CO., LTD., priority 2020, published 2025).
# Ends that are not written are not given here.
# B1: AGM-330 (peptide)
# peptide: RHGAMVYLK
# modifications: not fully specified (C-terminus); also: MAP dendrimer (dimer/tetramer) on lysine core with C-terminal Cys
# notes: The form used in SPR (monomer, dimer or tetramer); also called AGM-330 peptide; AGM peptide ligand
# Legend:
# [1] = tested on: MCF-7; test: Cytotoxicity of AGM-330-CPP fusion peptides; format: cell-based, Human; conditions: MCF-7, fusion peptide alone, Example 11
# [2] = tested on: HCT-116; test: Cytotoxicity of AGM-330-CPP fusion peptides; format: cell-based, Human; conditions: HCT-116, fusion peptide alone, Example 11
# [3] = Body weight and serum blood chemistry in xenograft mice
# [4] = tested on: MDA-MB-231-luc cells; test: Tumor suppression in breast cancer xenograft model; format: in vivo, NPG mice
# Method: FIG. 14B is a schematic representation of the experimental protocol. Here, anesthetized 6-week-old […] NPG mice were inoculated with a 1:1 mix of Matrigel and 1×10^6 MDA-MB-231-luc cells into the mammary fat pad. […] Nuclei were stained with DAPI (blue), and the scale bar is 50 μm. Bar graphs represent the mean±SD, and statistical analyses were performed by one-way ANOVA with Dunnett's multiple comparison. *, **, and *** indicate P<0.05, P<0.01, and P<0.001, respectively. […]
# All animal experiments were performed in accordance with IACUC guidelines (GIST-2019-040). For tumorigenesis experiments, anesthetized 6-week-old female NOD-scid Il2rg^−/− mice (NPG™, VITALSTAR) were inoculated in the mammary fat pad with 1×10^6 MDA-MB-231-luc cells in a volume of 100 μl (n=5˜6 for each group). After tumor cell inoculation, when the tumor volume reached approximately 100 mm^3, the mice were randomly divided into the following five groups: (i) control, (ii) low-dose paclitaxel (2 mg/kg), (iii) high-dose paclitaxel (10 mg/kg), (iv) AGM-330 (16.68 mg/kg or 8.34 mg/kg), and (v) AGM-330-PTX (19.05 mg/kg or 10.71 mg/kg). The tumor size was measured twice a week, and the tumor volume was calculated with the following formula:
# For the bioluminescent imaging experiment, D-luciferin (150 mg/kg; PerkinElmer) was intraperitoneally injected into each mouse, and an IVIS 100 imaging system (Xenogen, Corporation, Alameda, CA) was used for bioluminescent monitoring. Mice were anesthetized with vaporized isoflurane (BK Pharm, Ilsan, Korea) and placed in an imaging chamber. After 10 min, each animal was imaged with an exposure time of 1 min. All bioluminescent image data were provided by Living Image software (version 4.5.2, PerkinElmer). Photons detected from tumors were converted to average radiance values (photon/see/cm^2/sr), which are quantitative data obtained from a region of intensity (ROI) and include the photons emitted by bioluminescent cells from an assigned rectangular area over the whole body of each mouse.
# Following in vitro proliferation analysis on cancer lines, the present inventors investigated whether AGM-330t-PTX could be a potential therapeutic agent in vivo. The present inventors inoculated MDA-MB-231-luc cells into the mammary fat pad of NPG mice. After the subcutaneous tumors grew to 100 mm^3, comparative efficacy studies were performed by dividing the animals into five groups (n=5/group) treated with vehicle (PBS), AGM-330t (16.68 mg/kg), PTX (2 or 10 mg/kg, respectively) or AGM-330t-PTX (19.05 mg/kg) twice a week by tail vein injection (FIG. 14B). Tumor growth was monitored by measuring volumes twice a week with a caliber rule over the course of 3 weeks.
# The present inventors also performed histological staining of the excised tumors, and an independent pathologist evaluated the slides.
# [5] = target: T1, recombinant nucleolin protein (UniProt P19338 1-710, limits assumed); test: SPR (Biacore T-200), recombinant NCL immobilised on a CM5 chip, AGM-330 at 20 nM to 2.5 uM
# T1 construct: also called recombinant NCL; NCL
# T1 sequence (P19338 whole entry): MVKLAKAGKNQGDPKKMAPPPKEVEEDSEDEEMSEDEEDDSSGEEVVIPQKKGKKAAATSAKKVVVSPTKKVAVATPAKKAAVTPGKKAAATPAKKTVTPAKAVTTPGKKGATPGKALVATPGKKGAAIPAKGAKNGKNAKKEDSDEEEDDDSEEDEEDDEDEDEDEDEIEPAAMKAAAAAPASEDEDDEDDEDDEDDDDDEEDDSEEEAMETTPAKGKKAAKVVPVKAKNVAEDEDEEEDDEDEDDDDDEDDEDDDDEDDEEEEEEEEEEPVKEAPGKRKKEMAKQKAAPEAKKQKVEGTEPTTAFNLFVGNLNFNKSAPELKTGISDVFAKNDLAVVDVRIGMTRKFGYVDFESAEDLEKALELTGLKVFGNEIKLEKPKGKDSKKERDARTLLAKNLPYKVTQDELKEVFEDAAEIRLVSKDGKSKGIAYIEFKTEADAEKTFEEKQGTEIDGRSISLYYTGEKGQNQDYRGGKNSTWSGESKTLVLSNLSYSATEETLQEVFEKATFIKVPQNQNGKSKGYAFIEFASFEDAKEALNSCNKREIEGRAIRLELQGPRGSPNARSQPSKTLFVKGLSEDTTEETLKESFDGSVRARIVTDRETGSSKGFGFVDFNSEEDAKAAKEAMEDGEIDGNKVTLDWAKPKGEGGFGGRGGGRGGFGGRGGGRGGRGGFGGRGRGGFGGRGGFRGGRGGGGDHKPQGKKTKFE
# Method: (§1) The SPR sensorgrams shown are from an experiment that is representative of a set of three separate experiments using different sensor chips with similar results. Recombinant NCL was immobilized onto a CM5 sensor chip. Various concentrations of AGM-330 (20 nM to 2.5 µM) were incubated with immobilized NCL and analyzed on a Biacore T-200 apparatus.
# (§2) Binding affinity was tested by SPR (surface plasmon resonance) spectroscopy (Biacore T-200). The recombinant nucleolin protein was immobilized on the CM5 sensorchip, and the treated with AGM-330 at various concentrations (20 nM to 2.5 µM). The sensogram for each sample was analyzed to determine the KD value.
# [6] = target: T1, recombinant nucleolin protein; test: SPR (Biacore T-200), recombinant NCL immobilised on a CM5 chip, AGM-330 20 nM to 2.5 µM as analyte
# Method: as §1, §2
molecule,measurement,setting,value
CC[C@H](C)[C@H](NC(=O)[C@H](CCCNC(=N)N)NC(=O)[C@H](CC(C)C)NC(=O)[C@@H](NC(=O)[C@H](CCCNC(=N)N)NC(=O)[C@H](CCSC)NC(=O)[C@@H](NC(=O)[C@@H](N)CCCNC(=N)N)[C@@H](C)CC)[C@@H](C)CC)C(=O)N[C@@H](CC(C)C)C(=O)N[C@@H](CCCCN)C(=O)N[C@@H](CC(C)C)C(=O)N[C@@H](C)C(=O)N[C@@H](CCCNC(=N)N)C(=O)NCCCC[C@H](NC(=O)[C@H](CCCNC(=N)N)NC(=O)[C@H](C)NC(=O)[C@H](CC(C)C)NC(=O)[C@H](CCCCN)NC(=O)[C@H](CC(C)C)NC(=O)[C@@H](NC(=O)[C@H](CCCNC(=N)N)NC(=O)[C@H](CC(C)C)NC(=O)[C@@H](NC(=O)[C@H](CCCNC(=N)N)NC(=O)[C@H](CCSC)NC(=O)[C@@H](NC(=O)[C@@H](N)CCCNC(=N)N)[C@@H](C)CC)[C@@H](C)CC)[C@@H](C)CC)C(=O)N[C@@H](CSSC[C@H](NC(=O)[C@H](CCCCNC(=O)CCOCCOCCOCCOCCOCCOCCNC(=O)[C@H](CCCCN)NC(=O)[C@H](CC(C)C)NC(=O)[C@H](Cc1ccc(O)cc1)NC(=O)[C@@H](NC(=O)[C@H](CCSC)NC(=O)[C@H](C)NC(=O)CNC(=O)[C@H](Cc1c[nH]cn1)NC(=O)[C@@H](N)CCCNC(=N)N)C(C)C)NC(=O)CCOCCOCCOCCOCCOCCOCCNC(=O)[C@H](CCCCN)NC(=O)[C@H](CC(C)C)NC(=O)[C@H](Cc1ccc(O)cc1)NC(=O)[C@@H](NC(=O)[C@H](CCSC)NC(=O)[C@H](C)NC(=O)CNC(=O)[C@H](Cc1c[nH]cn1)NC(=O)[C@@H](N)CCCNC(=N)N)C(C)C)C(=O)O)C(=O)O [AGM-330d-dCPP],IC50,[1],4.21 µM
same,IC50,[2],5.47 µM
CSCC[C@H](NC(=O)[C@H](C)NC(=O)CNC(=O)[C@H](Cc1c[nH]cn1)NC(=O)[C@@H](N)CCCNC(=N)N)C(=O)N[C@H](C(=O)N[C@@H](Cc1ccc(O)cc1)C(=O)N[C@@H](CC(C)C)C(=O)N[C@@H](CCCCN)C(=O)NCCOCCOCCOCCOCCOCCOCCOCCOCCOCCOCCOCCOCCC(=O)NCCCC[C@H](NC(=O)CCOCCOCCOCCOCCOCCOCCOCCOCCOCCOCCOCCOCCNC(=O)[C@H](CCCCN)NC(=O)[C@H](CC(C)C)NC(=O)[C@H](Cc1ccc(O)cc1)NC(=O)[C@@H](NC(=O)[C@H](CCSC)NC(=O)[C@H](C)NC(=O)CNC(=O)[C@H](Cc1c[nH]cn1)NC(=O)[C@@H](N)CCCNC(=N)N)C(C)C)C(=O)NCCCC[C@H](NC(=O)[C@H](CCCCNC(=O)CCOCCOCCOCCOCCOCCOCCOCCOCCOCCOCCOCCOCCNC(=O)[C@H](CCCCN)NC(=O)[C@H](CC(C)C)NC(=O)[C@H](Cc1ccc(O)cc1)NC(=O)[C@@H](NC(=O)[C@H](CCSC)NC(=O)[C@H](C)NC(=O)CNC(=O)[C@H](Cc1c[nH]cn1)NC(=O)[C@@H](N)CCCNC(=N)N)C(C)C)NC(=O)CCOCCOCCOCCOCCOCCOCCOCCOCCOCCOCCOCCOCCNC(=O)[C@H](CCCCN)NC(=O)[C@H](CC(C)C)NC(=O)[C@H](Cc1ccc(O)cc1)NC(=O)[C@@H](NC(=O)[C@H](CCSC)NC(=O)[C@H](C)NC(=O)CNC(=O)[C@H](Cc1c[nH]cn1)NC(=O)[C@@H](N)CCCNC(=N)N)C(C)C)C(=O)N[C@@H](CSC1CC(=O)N(CCC(=O)O[C@@H](C(=O)O[C@H]2C[C@@]3(O)[C@@H](OC(=O)c4ccccc4)[C@@H]4[C@]5(OC(C)=O)CO[C@@H]5C[C@H](O)[C@@]4(C)C(=O)[C@H](OC(C)=O)C(=C2C)C3(C)C)[C@@H](NC(=O)c2ccccc2)c2ccccc2)C1=O)C(=O)O)C(C)C (stereo partly shown) [AGM-330t-PTX],mouse body weights compared to vehicle (PBS) administration,"[3]; AGM-330t-PTX 19.05 mg/kg, 3 weeks",not affected
same,"blood chemistry analysis (ALB, GOT, GPT, TP-PS, UA)",[3]; serum of xenografted mice,no adverse signs of toxicity
same,average tumor volume,"[4]; 19.05 mg/kg twice a week, tail vein, n=5",807±90 mm^3
same,decrease of average tumor volume with respect to the same dose PTX,[4]; 19.05 mg/kg vs PTX 2 mg/kg,approximately 52%
same,final average tumor weight,"[4]; 19.05 mg/kg, n=5",1.3 ± 0.1 g
same,apoptotic cell nuclei in excised tumors (TUNEL),"[4]; mouse, in vivo",increase in apoptotic cell nuclei
same,"number of cancerous cells in excised tumors (H&E staining, Ki-67)","[4]; mouse, in vivo",reduction in the number of cancerous cells
CC[C@H](C)[C@H](NC(=O)[C@H](CCCNC(=N)N)NC(=O)[C@H](CC(C)C)NC(=O)[C@@H](NC(=O)[C@H](CCCNC(=N)N)NC(=O)[C@H](CCSC)NC(=O)[C@@H](NC(=O)[C@@H](N)CCCNC(=N)N)[C@@H](C)CC)[C@@H](C)CC)C(=O)N[C@@H](CC(C)C)C(=O)N[C@@H](CCCCN)C(=O)N[C@@H](CC(C)C)C(=O)N[C@@H](C)C(=O)N[C@@H](CCCNC(=N)N)C(=O)NCCCC[C@H](NC(=O)[C@H](CCCNC(=N)N)NC(=O)[C@H](C)NC(=O)[C@H](CC(C)C)NC(=O)[C@H](CCCCN)NC(=O)[C@H](CC(C)C)NC(=O)[C@@H](NC(=O)[C@H](CCCNC(=N)N)NC(=O)[C@H](CC(C)C)NC(=O)[C@@H](NC(=O)[C@H](CCCNC(=N)N)NC(=O)[C@H](CCSC)NC(=O)[C@@H](NC(=O)[C@@H](N)CCCNC(=N)N)[C@@H](C)CC)[C@@H](C)CC)[C@@H](C)CC)C(=O)NCCCC[C@H](NC(=O)[C@H](CCCCNC(=O)[C@H](CCCNC(=N)N)NC(=O)[C@H](C)NC(=O)[C@H](CC(C)C)NC(=O)[C@H](CCCCN)NC(=O)[C@H](CC(C)C)NC(=O)[C@@H](NC(=O)[C@H](CCCNC(=N)N)NC(=O)[C@H](CC(C)C)NC(=O)[C@@H](NC(=O)[C@H](CCCNC(=N)N)NC(=O)[C@H](CCSC)NC(=O)[C@@H](NC(=O)[C@@H](N)CCCNC(=N)N)[C@@H](C)CC)[C@@H](C)CC)[C@@H](C)CC)NC(=O)[C@H](CCCNC(=N)N)NC(=O)[C@H](C)NC(=O)[C@H](CC(C)C)NC(=O)[C@H](CCCCN)NC(=O)[C@H](CC(C)C)NC(=O)[C@@H](NC(=O)[C@H](CCCNC(=N)N)NC(=O)[C@H](CC(C)C)NC(=O)[C@@H](NC(=O)[C@H](CCCNC(=N)N)NC(=O)[C@H](CCSC)NC(=O)[C@@H](NC(=O)[C@@H](N)CCCNC(=N)N)[C@@H](C)CC)[C@@H](C)CC)[C@@H](C)CC)C(=O)N[C@@H](CSSC[C@H](NC(=O)[C@H](CCCCNC(=O)[C@H](CCCCNC(=O)CCOCCOCCOCCOCCOCCOCCNC(=O)[C@H](CCCCN)NC(=O)[C@H](CC(C)C)NC(=O)[C@H](Cc1ccc(O)cc1)NC(=O)[C@@H](NC(=O)[C@H](CCSC)NC(=O)[C@H](C)NC(=O)CNC(=O)[C@H](Cc1c[nH]cn1)NC(=O)[C@@H](N)CCCNC(=N)N)C(C)C)NC(=O)CCOCCOCCOCCOCCOCCOCCNC(=O)[C@H](CCCCN)NC(=O)[C@H](CC(C)C)NC(=O)[C@H](Cc1ccc(O)cc1)NC(=O)[C@@H](NC(=O)[C@H](CCSC)NC(=O)[C@H](C)NC(=O)CNC(=O)[C@H](Cc1c[nH]cn1)NC(=O)[C@@H](N)CCCNC(=N)N)C(C)C)NC(=O)[C@H](CCCCNC(=O)CCOCCOCCOCCOCCOCCOCCNC(=O)[C@H](CCCCN)NC(=O)[C@H](CC(C)C)NC(=O)[C@H](Cc1ccc(O)cc1)NC(=O)[C@@H](NC(=O)[C@H](CCSC)NC(=O)[C@H](C)NC(=O)CNC(=O)[C@H](Cc1c[nH]cn1)NC(=O)[C@@H](N)CCCNC(=N)N)C(C)C)NC(=O)CCOCCOCCOCCOCCOCCOCCNC(=O)[C@H](CCCCN)NC(=O)[C@H](CC(C)C)NC(=O)[C@H](Cc1ccc(O)cc1)NC(=O)[C@@H](NC(=O)[C@H](CCSC)NC(=O)[C@H](C)NC(=O)CNC(=O)[C@H](Cc1c[nH]cn1)NC(=O)[C@@H](N)CCCNC(=N)N)C(C)C)C(=O)O)C(=O)O [AGM-330t-tCPP],IC50,[1],3.8 µM
same,IC50,[2],3.79 µM
B1,Kd,[5],~57.7 nM
same,Kd,[6],57.7 nM
